Converted amounts (≈) assume the structure as drawn. Where two headings read alike, the source gives them in different places.
Columns and labels:
[1] = system: Klebsiella pneumoniae X68; experiment: MIC, standard agar-dilution assay; type: cell-based
Experimental: (§1) The MIC's in Table II were determined by standard agar-dilution assays. The MIC's in Table III were obtained using conventional broth-dilution microtiter tests.

[2] = system: Staphylococcus epidermidis 222; experiment: MIC, standard agar-dilution assay; type: cell-based; conditions: Staphylococcus epidermidis 222; agar dilution; read-out: MIC
Experimental: as §1

[3] = system: Staphylococcus aureus V41; experiment: MIC, standard agar-dilution assay; type: cell-based; conditions: Staphylococcus aureus V41; Penicillin-resistant strain; agar dilution; read-out: MIC
Experimental: as §1

[4] = system: Haemophilus influenzae C.L.; experiment: MIC, standard agar-dilution assay; type: cell-based; conditions: Haemophilus influenzae C.L.; Ampicillin-sensitive strain; agar dilution; read-out: MIC
Experimental: as §1

[5] = system: Escherichia coli EC14; experiment: MIC, standard agar-dilution assay; type: cell-based; conditions: Escherichia coli EC14; agar dilution; read-out: MIC
Experimental: as §1

[6] = system: Staphylococcus aureus X400; experiment: MIC, standard agar-dilution assay; type: cell-based; conditions: Staphylococcus aureus X400; Methicillin-resistant strain; agar dilution; read-out: MIC
Experimental: as §1

[7] = system: Pseudomonas aeruginosa X239; experiment: MIC, standard agar-dilution assay; type: cell-based; conditions: Pseudomonas aeruginosa X239; agar dilution; read-out: MIC
Experimental: as §1

[8] = system: Streptococcus pneumoniae Park I; experiment: MIC, standard agar-dilution assay; type: cell-based; conditions: Streptococcus pneumoniae Park I; agar dilution; read-out: MIC
Experimental: as §1

[9] = system: Haemophilus influenzae 76; experiment: MIC, standard agar-dilution assay; type: cell-based; conditions: Haemophilus influenzae 76; Ampicillin-resistant strain; agar dilution; read-out: MIC
Experimental: as §1

[10] = system: Streptococcus faecalis 2041; experiment: MIC, standard agar-dilution assay; type: cell-based; conditions: Enterococcus faecalis; Streptococcus faecalis 2041; agar dilution; read-out: MIC
Experimental: as §1

[11] = system: Staphylococcus epidermidis EPI1; experiment: MIC, standard agar-dilution assay; type: cell-based; conditions: Staphylococcus epidermidis EPI1; agar dilution; read-out: MIC
Experimental: as §1

[12] = system: Staphylococcus aureus X1.1; experiment: MIC, standard agar-dilution assay; type: cell-based; conditions: Staphylococcus aureus X1.1; agar dilution; read-out: MIC
Experimental: as §1

[13] = system: Streptococcus faecalis X66; experiment: MIC, standard agar-dilution assay; type: cell-based; conditions: Enterococcus faecalis; Streptococcus faecalis X66; agar dilution; read-out: MIC
Experimental: as §1

[14] = system: Streptococcus pyogenes C203; experiment: MIC, standard agar-dilution assay; type: cell-based; conditions: Streptococcus pyogenes C203; agar dilution; read-out: MIC
Experimental: as §1

[15] = system: Staphylococcus aureus S13E; experiment: MIC, standard agar-dilution assay; type: cell-based
Experimental: as §1

[16] = system: Streptococcus pyogenes C203; experiment: ED50 in mice experimentally infected with S. pyogenes C203; type: in vivo; conditions: two doses given 1 and 4 hours post-infection, dose protecting 50% of the test animals
Experimental: The formula 1 compounds have shown in vivo antimicrobial activity against experimentally-induced infections in laboratory animals. When two doses of test compound were administered to mice experimentally infected with S. pyogenes C203, the activity observed was measured as an ED₅₀ value [effective dose in mg/kg to protect 50% of the test animals: see Warren Wick, et 5 al., J. Bacteriol. 81, 233-235 (1961)].

[17] = C203, mice, oral, read-out: ED50 Oral
[18] = C203, sc, mice, subcutaneous, read-out: ED50 Subcutaneous

SMILES	MIC ([1]; Klebsiella pneumoniae, X68)	MIC [2]	MIC [3]	MIC [4]	MIC [5]	MIC [6]	MIC [7]	MIC [8]	MIC [9]	MIC [10]	MIC [11]	MIC [12]	MIC [13]	MIC [14]	MIC [15]	ED50 [16, 17]	ED50 [16, 18]	MIC ([1]; Klebsiella pneumoniae X68, agar dilution, read-out: MIC)
CCC1OC(=O)CC(O)C(C)C(OC2OC(C)C(O)C(N(C)C)C2O)C(CCN2CC(C)CC(C)C2)CC(C)C(=O)C=CC(C)=CC1COC1OC(C)C(OC(C)=O)C(OC)C1OC (stereo not shown) [Compound 19, 4ʹʹ-O-Acetyl-20-DH-20-deoxy-20-(3,5-dimethylpiperidin-1-yl)-desmycosin]	> 128 µg/mL	1 µg/mL (≈ 1.1 µM)	1 µg/mL (≈ 1.1 µM)	32 µg/mL (≈ 35.1 µM)	> 128 µg/mL	1 µg/mL (≈ 1.1 µM)	> 128 µg/mL	0.125 µg/mL (≈ 0.137 µM)	64 µg/mL (≈ 70.2 µM)	8 µg/mL (≈ 8.78 µM)	1 µg/mL (≈ 1.1 µM)	2 µg/mL (≈ 2.19 µM)	8 µg/mL (≈ 8.78 µM)	0.125 µg/mL (≈ 0.137 µM)	1 µg/mL (≈ 1.1 µM)	–	–	–
CCC1OC(=O)CC(O)C(C)C(OC2OC(C)C(OC(C)=O)C(N(C)C)C2OC(C)=O)C(CCOc2ccccc2)CC(C)C(=O)C=CC(C)=CC1COC1OC(C)C(OC(=O)CCl)C(OC)C1OC (stereo not shown) [Compound 8, 2ʹ,4ʹ-Di-O-acetyl-4ʹʹ-O-(chloroacetyl)-20-DH-20-O-phenyl-desmycosin]	> 128 µg/mL	2 µg/mL (≈ 1.98 µM)	2 µg/mL (≈ 1.98 µM)	> 128 µg/mL	> 128 µg/mL	2 µg/mL (≈ 1.98 µM)	> 128 µg/mL	8 µg/mL (≈ 7.92 µM)	> 128 µg/mL	128 µg/mL (≈ 127 µM)	2 µg/mL (≈ 1.98 µM)	2 µg/mL (≈ 1.98 µM)	32 µg/mL (≈ 31.7 µM)	2 µg/mL (≈ 1.98 µM)	2 µg/mL (≈ 1.98 µM)	–	–	–
CCC1OC(=O)CC(O)C(C)C(OC2OC(C)C(O)C(N(C)C)C2O)C(CCOc2ccccc2)CC(C)C(=O)C=CC(C)=CC1COC1OC(C)C(OC(=O)CN2CCN(C)CC2)C(OC)C1OC (stereo not shown) [Compound 15, 4ʹʹ-O-[(4-Methyl-piperazin-1-yl)acetyl]-20-DH-20-O-phenyl-desmycosin]	–	4 µg/mL (≈ 4.04 µM)	4 µg/mL (≈ 4.04 µM)	128 µg/mL (≈ 129 µM)	> 128 µg/mL	4 µg/mL (≈ 4.04 µM)	> 128 µg/mL	1 µg/mL (≈ 1.01 µM)	128 µg/mL (≈ 129 µM)	16 µg/mL (≈ 16.2 µM)	8 µg/mL (≈ 8.08 µM)	4 µg/mL (≈ 4.04 µM)	16 µg/mL (≈ 16.2 µM)	2 µg/mL (≈ 2.02 µM)	4 µg/mL (≈ 4.04 µM)	29 mg/kg	> 10 mg/kg	> 128 µg/mL
CCC1OC(=O)CC(O)C(C)C(OC2OC(C)C(O)C(N(C)C)C2O)C(CCOc2ccccc2)CC(C)C(=O)C=CC(C)=CC1COC1OC(C)C(OC(=O)C(N)c2ccccc2)C(OC)C1OC [Compound 7, 20-DH-20-O-Phenyl-4ʹʹ-O-(D-phenylglycyl)-desmycosin]	> 128 µg/mL	1 µg/mL (≈ 1.02 µM)	2 µg/mL (≈ 2.03 µM)	128 µg/mL (≈ 130 µM)	> 128 µg/mL	1 µg/mL (≈ 1.02 µM)	> 128 µg/mL	2 µg/mL (≈ 2.03 µM)	64 µg/mL (≈ 65.1 µM)	32 µg/mL (≈ 32.5 µM)	2 µg/mL (≈ 2.03 µM)	1 µg/mL (≈ 1.02 µM)	16 µg/mL (≈ 16.3 µM)	2 µg/mL (≈ 2.03 µM)	1 µg/mL (≈ 1.02 µM)	21 mg/kg	> 10 mg/kg	–

Source: EP0262903A2, “New acyl derivatives of 20-modified tylosin and desmycosin compounds” (priority 1986, dated 1988)
